Where two headings read alike, the source gives them in different places.
Tests used:
[1] = test system: antidepressant activity; conditions: French Pat. No. 71.32197; cited from earlier work
[2] = test system: aggressivity of isolated mice; assay: Effects on the aggressivity of isolated mice; type: in vivo, mouse (male CD); conditions: for % OF PROTECTED COUPLES (no attack) / MEAN NUMBER OF ATTACKS ± SD: 30 minutes before test; for % OF PROTECTED COUPLES (no attack): 10 couples; for MEAN NUMBER OF ATTACKS ± SD: 3 minute test
Procedure: The male CD mice (Charles RIVER) used in this study were housed in small (18×10×10 cm) individual cages with the walls painted black, with one mouse per cage, for several months, at a constant temperature of 21° C. and in a light-darkness cycle of 12 hours. The average weight of the mice at the time of the study was 45 g.
Each experimental group comprised 10 couples of mice previously selected for their aggressivity. The aggressivity test was carried out on non-fasting animals. The "intruding" mouse of each couple was placed in the cage containing the other mouse for a 3 minute period.
The product was administered by the intraperitoneal route, 30 minutes before the test.

[3] = test system: antidepressant activity; assay: Antidepressant activity (standard pharmacological tests); type: in vivo
Excerpt: The standard pharmacological tests used to evaluate the antidepressant activity of new chemical compounds, described, in particular, in Enna S. J. et al. "Antidepressants: Neurochemical Behavioral, and Clinical Perspectives" Raven Press N.Y. 1981, p.

[4] = test system: reserpine-induced hypothermia in the mouse; assay: Effects on reserpine-induced hypothermia in the mouse; type: in vivo, mouse (NMRI); conditions: 50 mg.kg^-1 IP
Procedure: This study was carried out on experimental groups of 10 NMRI mice (IFFA-CREDO) fasted for 18 hours. […] One hour later, all the animals were given an intraperitoneal injection of 2 mg.kg^-1 of reserpine. Hypothermia was evaluated 4 hours after the injection of reserpine by measuring the rectal temperature using an electric thermometer.

[5] = test system: reserpine-induced ptosis in the mouse; assay: Effects on reserpine-induced ptosis in the mouse; type: in vivo, mouse (male NMRI); conditions: 25 mg.kg^-1 IP, reserpine 2 mg.kg^-1 IV
Procedure: This experiment was carried out on groups of 20 male NMRI mice (IFFA-CREDO), with an average weight of 20±2 g. […] GOURET et al., in J. Pharmacol., 1977, 8, (3) p. 333-350.
One hour after the injection of the reserpine, the animals were placed on a 5 cm×5 cm square, wood platform for 20 seconds. Ptosis was considered to be positive if the animal's eyes remained shut during the 20 seconds after it was placed on the platform. On the other hand, the animal was considered to be protected if the eyes were not completely closed during the 20 seconds following the moment when it was placed on the platform.

[6] = test system: tetrabenazine-induced ptosis in the mouse; assay: Effects on tetrabenazine-induced ptosis in the mouse; type: in vivo, mouse (male CD)
Procedure: Male CD mice (Charles River), of average weight 23 g, were distributed in groups of 12 animals. […] The dose of products tested was 25 mg.kg^-1. The animals were observed individually 5, 25, 35 and 55 minutes after the injection of the tetrabenazine and the intensity of the ptosis was evaluated using a 0 to 4 rating scale.

[7] = 20 mg.kg^-1 IP, controls 0%, S = statistically significant change

CN1c2ccccc2C(NCCCCCCC(=O)O)c2ccc(Cl)cc2S1(=O)=O (stereo not shown) [TAHA, 7-[(3-chloro-6-methyl-5,5-dioxo-6,11-dihydro-dibenzo(c,f)(1,2)thiazepin-11-yl)-amino]heptanoic acid, reference compound]
antidepressant properties (in words) [1]: antidepressant properties
% OF PROTECTED COUPLES (no attack) ([2]; 10 mg.kg^-1 IP, controls 10%): 10%
anti-aggressive effect (in words) ([2]; 20 mg.kg^-1 IP): clear anti-aggressive effect
% OF PROTECTED COUPLES (no attack) [2, 7]: 40%
MEAN NUMBER OF ATTACKS ± SD ([2]; 20 mg.kg^-1 IP, water controls 8.3 ± 6.0): 3.7 ± 4.9

CN1c2ccccc2C(NCCCCC(=O)O)c2ccc(Cl)cc2S1(=O)=O (stereo not shown) [compound of the formula I, 5-[(3-chloro-6-methyl-5,5-dioxo-6,11-dihydro-dibenzo(c,f)(1,2)thiazepin-11-yl)-amino]pentanoic acid]
antidepressant activity (in words) [3]: much greater antidepressant activity
antidepressant activity (in words) ([3]; listed as 5-[(3-chloro-6-methyl-5,5-dioxo-6,11-dihydrodibenzo(c,f)(1,2)thiazepin-11-yl)-a): very potent antidepressant activity
antagonism of reserpine-induced hypothermia (in words) [4]: much higher
FINAL TEMPERATURES MEAN ± SD ([4]; rectal temperature 4 hours after reserpine 2 mg.kg^-1 IP, controls 24.7 ± 0.88): 30.9 ± 3.7
% OF PROTECTED COUPLES (no attack) ([2]; 10 mg.kg^-1 IP, controls 10%): 20%
MEAN NUMBER OF ATTACKS ± SD ([2]; 10 mg.kg^-1 IP, water controls 6.7 ± 4.7 (ATAH), 5.4 ± 2.8 (formula I)): 7.2 ± 5.9
anti-aggressive effect (in words) ([2]; 20 mg.kg^-1 IP): clear anti-aggressive effect
% OF PROTECTED COUPLES (no attack) [2, 7]: 60%
anti-aggressive activity compared with TAHA (in words) ([2]; isolated mice, IP): much greater than that of TAHA
antagonism of reserpine-induced ptosis (in words) [5]: much more active
animals protected from ptosis ([5]; 20 male NMRI mice per group): 53%
activity against tetrabenazine-induced ptosis compared with TAHA (in words) ([6]; 25 mg.kg^-1 IP): much greater and long-lasting activity than TAHA
% controls (% change of the mean ptosis scores in comparison with the controls), 5 MINUTES ([6]; 25 mg.kg^-1 IP, 5 minutes after tetrabenazine 20 mg.kg^-1): -69%
MEAN VALUE OF THE PTOSIS INTENSITY SCORE ± SD, 5 MINUTES ([6]; 25 mg.kg^-1 IP, 5 minutes after tetrabenazine 20 mg.kg^-1, 0 to 4 scale, controls 1.33 ± 0.65): 0.42 ± 0.51
% controls (% change of the mean ptosis scores in comparison with the controls), 25 MINUTES ([6]; 25 mg.kg^-1 IP, 25 minutes after tetrabenazine 20 mg.kg^-1): -32%
% controls (% change of the mean ptosis scores in comparison with the controls), 35 MINUTES ([6]; 25 mg.kg^-1 IP, 35 minutes after tetrabenazine 20 mg.kg^-1): -35%
MEAN VALUE OF THE PTOSIS INTENSITY SCORE ± SD, 35 MINUTES ([6]; 25 mg.kg^-1 IP, 35 minutes after tetrabenazine 20 mg.kg^-1, 0 to 4 scale, controls 2.83 ± 0.58): 1.83 ± 0.39
MEAN VALUE OF THE PTOSIS INTENSITY SCORE ± SD, 55 MINUTES ([6]; 25 mg.kg^-1 IP, 55 minutes after tetrabenazine 20 mg.kg^-1, 0 to 4 scale, controls 3.08 ± 0.51): 2.42 ± 0.67
% controls (% change of the mean ptosis scores in comparison with the controls), 55 MINUTES ([6]; 25 mg.kg^-1 IP, 55 minutes after tetrabenazine 20 mg.kg^-1, NS = Non significant): -22%
MEAN VALUE OF THE PTOSIS INTENSITY SCORE ± SD, 25 MINUTES ([6]; mouse, in vivo, ip): 1.75 ± 0.45
